SMILES strings stand for the structures.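 Results reflect a 48-hour exposure of cells in 96-well plates to compound at five concentrations. At the GI50, growth is halved.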 Calls of active or inactive are those of the source. Rule as the data show it: active = GI50 up to about 1.1 µM and inactive = higher. Where only a bound is given, the exact number is not on record here.

Among the test systems are NCI-H522; IGROV-1; ACHN; HL-60; UO-31; SK-MEL-28; HT-29; OVCAR-5; OVCAR-4; TK-10; CCRF-CEM; HOP-92; COLO 205; M14; HCT-15; NCI-H226; DU-145; SNB-75; A498.
Common to all, as to assay: growth of human tumour cells (NCI), 48 h

With `O=[N+]([O-])c1cc([N+](=O)[O-])c(Nn2c3ccccc3c3ccccc32)c([N+](=O)[O-])c1`, the GI50 in the assay on NCI-H522 was 0.403 µM (active); in the assay on IGROV-1, 2.18 µM (inactive); in the assay with ACHN, 1.2 µM (inactive); with HL-60, 3.51 µM (inactive); in the assay on UO-31, 2.07 µM (inactive); in the assay on SK-MEL-28, 3.3 µM (inactive). The GI50 is 0.857 µM (active) with HT-29; 4.63 µM (inactive) in the assay on OVCAR-5; 2.12 µM (inactive) in the assay with OVCAR-4; 2.2 µM (inactive) in the assay with TK-10; 2.16 µM (inactive) in the assay on CCRF-CEM; 0.346 µM (active) in the assay on HOP-92. For the same molecule, the GI50 in the assay with COLO 205 is 2.56 µM (inactive); with M14, 2.17 µM (inactive); with HCT-15 it was 2.58 µM; in the assay with NCI-H226, 1.4 µM (inactive); with DU-145, 4.15 µM (inactive).
As for `COc1ccc2[nH]c3c(C)c4ncccc4c(C)c3c2c1`, the GI50 in the assay on NCI-H522 was > 10 µM (inactive); in the assay with IGROV-1, > 10 µM (inactive); with ACHN, 5.2 µM (inactive); in the assay on HL-60 it was 3.01 µM (inactive); in the assay on SK-MEL-28, 1.99 µM (inactive); with HT-29, 2.22 µM (inactive). Also, the GI50 with OVCAR-5 is 5.61 µM (inactive); in the assay on SNB-75 it was 9.91 µM (inactive); in the assay with OVCAR-4, 7.43 µM (inactive); in the assay on TK-10, > 10 µM (inactive); with CCRF-CEM, 3.85 µM (inactive); in the assay with HOP-92, 8.34 µM (inactive). In addition, the GI50 in the assay on COLO 205 is 6.95 µM (inactive); in the assay with M14, 1.64 µM (inactive); with HCT-15, 2.99 µM; in the assay on NCI-H226, 4.41 µM (inactive); in the assay with DU-145, 7.55 µM (inactive).
For the molecule `CC(=O)O[C@@]12CO[C@@H]1C[C@@H](O)[C@@]1(C)C(=O)[C@H](O)C3=C(C)[C@@H](OC(=O)[C@H](O)[C@@H](NC(=O)c4ccccc4)c4ccccc4)C[C@@](O)([C@@H](OC(=O)c4ccccc4)C12)C3(C)C` (stereo not given in full), the GI50 was 0.213 µM (active) in the assay on A498; < 0.0122 µM (active) in the assay on NCI-H522; 0.0218 µM (active) with IGROV-1; 2.77 µM (inactive) in the assay on ACHN; < 0.01 µM (active) in the assay with HL-60; 4.51 µM (inactive) with UO-31. Besides, the GI50 is 0.748 µM (active) in the assay with SK-MEL-28; < 0.01 µM (active) with HT-29; 0.0832 µM (active) with OVCAR-5; < 0.01 µM (active) in the assay on SNB-75; 24.7 µM (inactive) with OVCAR-4; 0.705 µM (active) with TK-10. For the same molecule, the GI50 in the assay on CCRF-CEM is 0.0103 µM (active); with COLO 205, < 0.01 µM (active); with M14, 0.0363 µM (active); in the assay with HCT-15 it was 3.03 µM; in the assay on NCI-H226, 17.4 µM (inactive); with DU-145 it was 0.0301 µM (active).
With `N#CC1=C(N)N(c2ccccc2)C(c2ccccc2)C1(C#N)C#N` (stereo not given), the GI50 with A498 was 17.4 µM (inactive); in the assay on NCI-H522, 16.3 µM (inactive); in the assay on IGROV-1 it was 15.7 µM (inactive); in the assay with ACHN it was 18.1 µM (inactive); with HL-60, 17 µM (inactive); in the assay with UO-31, 18.1 µM (inactive). Besides, the GI50 in the assay on SK-MEL-28 was 16.7 µM (inactive); in the assay with HT-29, 15.7 µM (inactive); with OVCAR-5 it was 16.1 µM (inactive); in the assay on SNB-75, 15.3 µM (inactive); with OVCAR-4, 19.6 µM (inactive); in the assay with TK-10, 16.5 µM (inactive). The GI50 in the assay with CCRF-CEM was 12.8 µM (inactive); in the assay with COLO 205, 17.2 µM (inactive); with M14 it was 21 µM (inactive); in the assay on HCT-15 it was 20.6 µM; with NCI-H226, 17.7 µM (inactive); in the assay on DU-145 it was 17.8 µM (inactive).

(Values after ChEMBL document CHEMBL1201862, “PubChem BioAssay data set” (2004).)
